The values that follow come from patent US10947199B2, “Spiro and cyclic bis-benzylidene proteasome inhibitor for the treatment of cancer, diabetes and neurological disorders” (UP THERAPEUTICS, INC., priority 2017, dated 2021).

One data set deals with OV2008 cancer cells. Description: Colony formation, OV2008. In kind it is cell-based. As to conditions: corresponding to IC50 values.
Data set [1] deals with NFκB reporter in 293 cells. Description: NFκB reporter assay in 293 cells stimulated with TNF-a. The following applies: 293 cells carrying NFκB reporter construct. The class given is cell-based. An excerpt: NFκB is constitutively activated in many cancers including high grade cervical intraepithelial neoplasia (CIN) and cervical cancer.
On the technique in general: In a reporter assay the amount or activity of a reporter protein is the signal.

A further data set relates to OV2008. Briefly: MTT cell viability assay, OV2008. As to conditions: OV2008, Ovarian Cancer, 24 or 48 or 72 hours. The class given is cell-based. On the procedure: (§1) Briefly cancer cells incubated with Up compounds for the period of 24 or 48 or 72 hours and the cell viability was measured using MTT assay. IC50 of compounds listed in Table1.
A general note: Formazan colour is commonly taken as a measure of viable cells.

The subject of a further data set is ES2 cells. Description: Annexin-V staining by FACS of ES2 cells. The following applies: 12 h. The class given is cell-based, human. How it is done: FIG. 8: (A) CHOP-10 quantification in ES2 cells treated with Up109 for 12 h; (B) Annexin-V staining by FACS analysis of ES2 cells treated with Up109 and Bortezomib for 12 h.
(§2) Accumulation of unfolded proteins upon the inhibition of proteasome function rapidly induces endoplasmic reticulum (ER) stress. ER stress triggers an evolutionarily conserved series of signal-transduction events, which constitute the unfolded protein response (UPR). The UPR attempts to restore protein homeostasis by eliminating the accumulated unfolded proteins in the ER; however, if protein homeostasis cannot be restored, apoptosis is triggered. C/EBP homologous protein (CHOP) is elevated at the onset of UPR-induced programmed cell death.
On the technique in general: In flow cytometry, cells or beads pass a laser one at a time.

The next data set relates to RPMI8226. Briefly: MTT cell viability assay, RPMI8226. The class given is cell-based. The following applies: RPMI8226, Multiple Myeloma, 24 or 48 or 72 hours. On the procedure:
as §1

The subject of data set [2] is HFF(primary human foreskin fibroblast). Description: MTT cell viability assay, HFF. The class given is cell-based. As to conditions: Normal Cell line, 24 or 48 or 72 hours. How it is done: as §1
The next data set has as its system SKOV3. Briefly: MTT cell viability assay, SKOV3. The class given is cell-based. As to conditions: SKOV3, Ovarian Cancer, 24 or 48 or 72 hours. How it is done:
as §1

For a further data set, the system named is RPMI8226-R. Briefly: MTT cell viability assay, RPMI8226-R. In kind it is cell-based. The following applies: Multiple Myeloma, 24 or 48 or 72 hours. On the procedure:
as §1

The test system of a further data set is HeLa. Description: MTT cell viability assay, HeLa. The class given is cell-based. As to conditions: Cervical Cancer, 24 or 48 or 72 hours. On the procedure:
as §1

For a further data set, the system named is SKOV3-TR. Briefly: MTT cell viability assay, SKOV3-TR. In kind it is cell-based. On the procedure:
as §1

For data set [3], the system named is CHOP-10 mRNA in ES2 cells. Description: CHOP-10 mRNA expression in ES2 cells. The class given is cell-based, human. As to conditions: 12 h.
Description: as §2

The target in data set [4] is T1, RPN13 (Homo sapiens, UniProt Q16186).
T1 construct: HeLa cell lysate was pretreated with Up109 or Up117; endogenous in cells; host or cells: HeLa cell lysate
T1 sequence (Q16186 whole entry): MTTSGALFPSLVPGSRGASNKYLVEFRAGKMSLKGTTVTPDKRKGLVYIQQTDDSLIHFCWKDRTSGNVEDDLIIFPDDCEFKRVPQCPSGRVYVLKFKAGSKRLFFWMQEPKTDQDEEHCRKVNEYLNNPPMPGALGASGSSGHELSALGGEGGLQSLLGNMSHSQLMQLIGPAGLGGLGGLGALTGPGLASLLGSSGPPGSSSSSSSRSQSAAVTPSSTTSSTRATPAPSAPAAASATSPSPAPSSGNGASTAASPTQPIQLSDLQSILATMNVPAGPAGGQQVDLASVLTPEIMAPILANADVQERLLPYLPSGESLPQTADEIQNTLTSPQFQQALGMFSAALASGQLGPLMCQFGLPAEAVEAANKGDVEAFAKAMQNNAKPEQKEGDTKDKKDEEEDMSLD
Briefly: RA190B probe competition assay, OV2008 cell lysate. The class given is binding. As to conditions: compound 25 μM, RA190B 5 μM. On the procedure:
To identify the cellular target, a competition assay was performed using RA190B probe. […] We used RA190B as a probe to determine the Up compounds binding to RPN13. OV2008 cell lysate was pretreated with Up compounds (25 μM) and then subsequently treated with RA190B (5 μM). Lysate was denatured under reduced conditions and proteins were separated on a gel and probed with HRP Streptavidin.

The next data set deals with DU145. Briefly: MTT cell viability assay, DU145. As to conditions: DU145, Prostate Cancer, 24 or 48 or 72 hours. In kind it is cell-based. On the procedure: as §1
A further data set relates to A2780 cancer cells. Description: Colony formation, A2780. The following applies: corresponding to IC50 values. In kind it is cell-based.
The test system of a further data set is MM.1S. Briefly: MTT cell viability assay, MM.1S. In kind it is cell-based. As to conditions: Multiple Myeloma, 24 or 48 or 72 hours. On the procedure:
as §1

Data set [5] is described as follows: Dose limiting toxicity studies. The class given is in vivo. How it is done: To identify the optimal dose that induces a clinical effect and operates with acceptable toxicity a set of experiments has been performed on female Balb/C strain mice with Up109. Individual groups of mice (n=3) were injected i.p. with increasing single doses of Up109 (3, 10, 20, 40 and 100 mg/Kg) and the endpoint evaluations included clinical observations and body weights. […] Another experiment was done with repeated i.p. doses of Up109 (40 mg/Kg, n=5) every other day for two weeks.

The next data set has as its system ES2. Briefly: MTT cell viability assay, ES2. In kind it is cell-based, human. As to conditions: ES2, Ovarian Cancer, 24 or 48 or 72 hours. How it is done:
as §1

Another data set relates to HCC1806. Description: MTT cell viability assay, HCC1806. In kind it is cell-based. As to conditions: HCC1806, Triple Negative Breast Cancer, 24 or 48 or 72 hours. How it is done: as §1
Data set [6] addresses T1, RPN13. Description: RA190B probe competition assay, HeLa cell lysate. The class given is binding. The following applies: HeLa cell lysate pretreated with compound. On the procedure:
To identify the cellular target, a competition assay was performed using RA190B probe. […] We used RA190B as a probe to determine the Up compound binding to RPN13. HeLa cell lysate was pretreated with Up109 or Up117 and then subsequently treated with RA190B. Lysate was denatured under reduced conditions and proteins were separated on a gel and probed with HRPStreptavidin.

The subject of another data set is OVCAR3. Briefly: MTT cell viability assay, OVCAR3. The class given is cell-based. The following applies: OVCAR3, Ovarian Cancer, 24 or 48 or 72 hours. On the procedure:
as §1

The test system of data set [7] is K48-linked polyubiquitinated proteins in HeLa cells. Description: anti-K48-linked ubiquitin immunoblot in HeLa cells. In kind it is cell-based. As to conditions: 4 hr treatment. From the text:
Accumulation of poly ubiquitinated proteins is a general phenomenon of proteasome inhibition. We examined the impact of these compounds on the levels of polyubiquitinated proteins in HeLa cells by anti-K48-linked ubiquitin immunoblot analysis.

For another data set, the system named is A2780. Briefly: MTT cell viability assay, A2780. The class given is cell-based. As to conditions: A2780, Ovarian Cancer, 24 or 48 or 72 hours. On the procedure:
as §1

Broadly, the IC50 is the concentration that inhibits the measured activity by half. As for `C=CC(=O)N1CCC2(CC1)C(=Cc1ccc([N+](=O)[O-])cc1)C(=O)C2=Cc1ccc([N+](=O)[O-])cc1` [Up109], the colony formation result in the data set with OV2008 cancer cells and with A2780 cancer cells was “significantly blocked colony formation” each time. For the same compound, the “NFκB reporter activity after stimulation with TNF-a” value in [1] is recorded as “significant dose-dependent decrease”. Besides, the IC50 with OV2008 was 34 nM; with RPMI8226, 123 nM; in data set [2] it was greater than 1250 nM; in the data set with SKOV3 it was 45 nM; in the data set on RPMI8226-R, 61 nM; with HeLa, 75 nM. In addition, the IC50 worked out at 58 nM in the data set on SKOV3-TR (SKOV3-TR, Ovarian Cancer (taxol resistant), MTT, 24 or 48 or 72 hours); 77 nM with DU145; 35 nM in the data set with MM.1S; 22 nM with ES2; 42 nM with HCC1806; 21 nM in the data set with OVCAR3. The same compound gave an IC50 with A2780 of 13 nM. Besides, the “Annexin-V positive cells (apoptosis)” value in the data set with ES2 cells was “elevation of apoptosis”. The “difference in activity between SKOV3 and its taxol resistant line (SKOV3-TR)” value in the data set on SKOV3-TR (SKOV3 vs SKOV3-TR) is “similarly active”. Moreover, the “CHOP-10 mRNA expression” value in [3] was “rapidly up-regulated”. In addition, the figures for the “competition with RA190B for binding to RPN13” value on RPN13 [4] and on RPN13 [6] were “Disappearance of RA190B labeling” and “disappearance of RA190B labeling”, respectively. In addition, the “toxicities/weight loss, repeated dose” value in [5] (Balb/C mice, i.p. 40 mg/Kg every other day for two weeks) is “No observable toxicities/weight loss”. For the same compound, the “clinical observations and body weights, single dose” value in data set [5] (female Balb/C mice, single i.p. doses 3, 10, 20, 40 and 100 mg/Kg) is on record as “No clinically apparent sign of adverse effect”. The “levels of K48-linked polyubiquitinated proteins” value in data set [7] was “dramatically increased”.
